Counter-ions that a name gives are not always drawn.
Key:
mouse (Harlan ND4) = test: mouse hot plate test (mouse jump); type: in vivo; conditions: subcutaneous injection, tested 15 minutes after administration, hot plate 55° C.
Procedure: In the mouse hot plate test, an upright acrylic cylinder comprising, as its base, a hot plate surface which is maintained at 55° C. is used. A mouse (Harlan ND4) is given, by subcutaneous injection, a predetermined amount of test compound dissolved or suspended in a suitable carrier, and, 15 minutes after administration of the test compound, the mouse is placed on the hot plate surface. The latency in seconds until the mouse jumps from the hot plate surface is measured. […] This must occur in a dose range which produces no motor incoordination or incapacitation. The following Table records ED50 results obtained from this test. By the term "ED50 " is meant that dose which produces analgesia in 50% of the mice tested. Analgesia is defined as a response latency in the presence of test compound that is equal to or greater than the control response latency plus two standard deviations. The percent analgesia data are converted to probits, and the ED50 is calculated by regression analysis of the dose-response data. Each dose response curve must have at least four points, and each point is determined using data from a minimum of ten treated mice and ten control mice.

Cox Standard albino mice = test: mouse writhing test (acetic acid induced); type: in vivo; conditions: 0.6% acetic acid i.p., dose reducing writhing frequency by 50%
Procedure: In the mouse writhing test, a writhing response is defined as a contraction of the abdominal musculature followed by extension of the hind limbs. Acetic acid administered intraperitoneally (10 ml./kg.) at a concentration of 0.6% was used to induce a writhing response. Five Cox Standard albino mice weighing 20-22 g. after being fasted overnight were observed simultaneously for the writhing response. Each mouse was used only once. The observation period was then […] and started five minutes following administration of the acetic acid. Inhibition of mouse writhing was calculated from the total number of writhes in the control and test compound-treated groups according to the following formula: [formula]
The dose required to reduce the frequency of writhing by 50% is defined as the ED50 and is calculated by "The use of Regression Line in Reverse", [Brownlee, K.A., Statistical Theory and Methodology in Science and Engineering, 2nd Ed., New York, John Wiley and Sons (1965)].

mice = conditions: cited from earlier work

Compound | Mouse Jump ED50 (mouse (Harlan ND4)) | Mouse Writhing, ED50, Oral (Cox Standard albino mice) | Mouse Writhing, ED50, Subcutaneous (Cox Standard albino mice) | analgesic activity upon intracerebroventricular administration (mice)
CCN(C(=O)CNC(=O)[C@@H](C)NC(=O)[C@H](Cc1ccc(O)cc1)NC)[C@@H](Cc1ccccc1)CN(C)C [Ala Et H, L-(N-Methyl)tyrosyl-D-alanylglycine, [N-ethyl-N-(1-benzyl-2-dimethylamino)ethyl]amide, Diacetate Salt] | 0.04 mg/kg | 50.4 mg/kg | 1.14 mg/kg | 
CCN(C(=O)CNC(=O)[C@@H](C)NC(=O)[C@H](Cc1ccc(O)cc1)NC)[C@@H](Cc1ccc(F)cc1)CN(C)C [Ala Et p-F, L-(N-Methyl)tyrosyl-D-alanylglycine[N-ethyl-N-[1-(4'-fluorobenzyl)-2-dimethylamino]ethyl]amide, Diacetate Salt] | 0.04 mg/kg | 88.2 mg/kg | 2.1 mg/kg | 
CN[C@@H](Cc1ccc(O)cc1)C(=O)N[C@H](C)C(=O)NCC(=O)N(C)[C@@H](Cc1ccccc1)CN(C)C [Ala Me H, L-(N-Methyl)tyrosyl-D-alanylglycine, [N-methyl-N-(1-benzyl-2-dimethylamino)ethyl]amide, Diacetate Salt] | 0.05 mg/kg | ~ 160 mg./kg. | 1.81 mg/kg | 
CCN(C(=O)CNC(=O)[C@@H](COC)NC(=O)[C@H](Cc1ccc(O)cc1)NC)[C@@H](Cc1ccccc1)CN(C)C [Ser(Me) Et H, L-(N-Methyl)tyrosyl-D-(O-methyl)serylglycine, [N-ethyl-N-(1-benzyl-2-dimethylamino)ethyl]amide, Diacetate Salt] | 0.09 mg/kg | 53.5 mg/kg | 3.6 mg/kg | 
H-Tyr-Gly-Gly-Phe-Leu-OH [leucine enkephalin] |  |  |  | exhibit analgesic activity
H-Tyr-Gly-Gly-Phe-Met-OH [methionine enkephalin] |  |  |  | exhibit analgesic activity

Reference: patent US4510082A, “Pharmacologically active peptides” (Eli Lilly and Company, priority 1983, dated 1985)
